According to PubChem BioAssay AID330 (DTP/NCI, 2004):
Values joined by “and” are separate entries in the source; they are usually repeats but may differ in a detail not shown here. Equal values may be shown once. Inconclusive results and toxic doses are left out. The calls were made as follows: active = survival T/C of 150% or more; inactive = T/C below 125% in these data.

Test system: P388 leukemia ip, CD2F1 mice, survival T/C
Experiment: NCI In Vivo Anticancer Drug Screen. Data for tumor model P388 Leukemia (intraperitoneal) in CD2F1 (CDF1) mice
Conditions: endpoint: median survival time, higher = longer survival
In short: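 Mice carrying the transplanted tumor received test compound or vehicle. Survival was recorded in each group, and the value is the treated-group measurement divided by that of the vehicle-treated control group.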

[1] = dose: 50.0 mg/kg/injection, schedule: Q01DX005 (ip), vehicle: saline with Tween-80
[2] = dose: 100.0 mg/kg/injection, schedule: Q01DX005 (ip), vehicle: saline with Tween-80
[3] = dose: 200.0 mg/kg/injection, schedule: Q01DX005 (ip), vehicle: saline with Tween-80
[4] = dose: 12.5 mg/kg/injection, schedule: Q01DX005 (ip), vehicle: Klucel (hydroxypropylcellulose) (HPC)
[5] = dose: 25.0 mg/kg/injection, schedule: Q01DX005 (ip), vehicle: Klucel (hydroxypropylcellulose) (HPC)
[6] = dose: 50.0 mg/kg/injection, schedule: Q01DX005 (ip), vehicle: Klucel (hydroxypropylcellulose) (HPC)
[7] = dose: 25.0 mg/kg/injection, schedule: Q01DX005 (ip), vehicle: saline with Tween-80

Measured: T/C

C=C1C(=O)OC2C[C@]3(C)C(CC12)C(=C)C(O)C[C@@H]3OC(=O)C(C)CC (some centres undefined)
inactive: [1] 105 % of control | [2] 103 % of control | [3] 111 % of control

O=C(OCC(OC(=O)c1ccccc1)C(OC(=O)c1ccccc1)C(OC(=O)c1ccccc1)c1nn[nH]n1)c1ccccc1 (centres undefined)
inactive: [1] 100 % of control | [2] 100 % of control | [3] 95 % of control

c1cncc(-c2c3ccccc3cc3ccc4ccccc4c23)c1
inactive: [1] 104 % of control | [2] 103 % of control | [3] 100 % of control

Cc1ccc2c(c1)C1(SC(C)C(=O)N1c1ccc(Br)cc1)C(=O)N2 (centres undefined)
inactive: dose: 60.0 mg/kg/injection, schedule: Q01DX005 (ip), vehicle: saline with Tween-80 94 % of control | dose: 120.0 mg/kg/injection, schedule: Q01DX005 (ip), vehicle: saline with Tween-80 96 % of control | dose: 240.0 mg/kg/injection, schedule: Q01DX005 (ip), vehicle: saline with Tween-80 97 % of control

C/C=C(\C)C(=O)OC1C2C(C)C(=O)OC2C(O)C(C)C2C=CC(=O)C21C (centres undefined)
inactive: dose: 2.5 mg/kg/injection, schedule: Q01DX009 (ip), vehicle: Klucel (hydroxypropylcellulose) (HPC) 100 % of control | dose: 5.0 mg/kg/injection, schedule: Q01DX009 (ip), vehicle: Klucel (hydroxypropylcellulose) (HPC) 106 % of control | dose: 10.0 mg/kg/injection, schedule: Q01DX009 (ip), vehicle: Klucel (hydroxypropylcellulose) (HPC) 99 % of control | dose: 20.0 mg/kg/injection, schedule: Q01DX009 (ip), vehicle: Klucel (hydroxypropylcellulose) (HPC) 108 % of control

C1=C[N-]c2c3c(ccc2=C1)=CC=C[N-]3.C1=C[N-]c2c3c(ccc2=C1)=CC=C[N-]3.C1C[N-]C2C(C1)CCC1CC[N-]CC12.[Ni]
inactive: dose: 3.12 mg/kg/injection, schedule: Q01DX005 (ip), vehicle: saline 97 % of control | dose: 6.25 mg/kg/injection, schedule: Q01DX005 (ip), vehicle: saline 96 % of control

[O-][n+]1ccccc1C(O)CSc1ccccc1 (centres undefined)
inactive: dose: 50.0 mg/kg/injection, schedule: Q01DX009 (ip), vehicle: saline with Tween-80 100 % of control | dose: 100.0 mg/kg/injection, schedule: Q01DX009 (ip), vehicle: saline with Tween-80 101 % of control | dose: 200.0 mg/kg/injection, schedule: Q01DX009 (ip), vehicle: saline with Tween-80 100 % of control

COc1cc(OC)c2c(O)c3c(=O)cc(C)oc3c(-c3c4cc(OC)cc(OC)c4c(O)c4c(=O)cc(C)oc34)c2c1
inactive: [4] 114 % of control | [5] 100 % of control | [6] 96 % of control | dose: 100.0 mg/kg/injection, schedule: Q01DX005 (ip), vehicle: Klucel (hydroxypropylcellulose) (HPC) 100 % of control | dose: 200.0 mg/kg/injection, schedule: Q01DX005 (ip), vehicle: Klucel (hydroxypropylcellulose) (HPC) 90 % of control | dose: 400.0 mg/kg/injection, schedule: Q01DX005 (ip), vehicle: Klucel (hydroxypropylcellulose) (HPC) 97 % of control

CCN(CC)c1nc(N(CC)CC)c2[nH]cnc2n1
inactive: dose: 12.5 mg/kg/injection, schedule: Q01DX005 (ip), vehicle: saline with Tween-80 102 % of control | [7] 100 % of control | [1] 98 % of control and 105 % of control | [2] 105 % of control

CCOC(=O)C1=C(C)N(C)C(C)=C(C(=O)OCC)C1c1ccc(Cl)cc1
inactive: dose: 25.0 mg/kg/injection, schedule: Q01DX009 (ip), vehicle: distilled water + Tween-80 99 % of control | dose: 50.0 mg/kg/injection, schedule: Q01DX009 (ip), vehicle: distilled water + Tween-80 97 % of control | dose: 100.0 mg/kg/injection, schedule: Q01DX009 (ip), vehicle: distilled water + Tween-80 89 % of control | dose: 400.0 mg/kg/injection, schedule: Q01DX009 (ip), vehicle: distilled water + Tween-80 98 % of control

O=C(C1=Cc2ccccc2OC1)N1CCN(c2ccccc2Cl)CC1
inactive: dose: 100.0 mg/kg/injection, schedule: Q04DX003 (ip), vehicle: Klucel (hydroxypropylcellulose) (HPC) 106 % of control | dose: 200.0 mg/kg/injection, schedule: Q04DX003 (ip), vehicle: Klucel (hydroxypropylcellulose) (HPC) 101 % of control | dose: 400.0 mg/kg/injection, schedule: Q04DX003 (ip), vehicle: Klucel (hydroxypropylcellulose) (HPC) 88 % of control

C/C=C1\C[C@H]2C(=O)Nc3cc(O)c(OC)cc3C(=O)N2C1
inactive: [7] 96 % of control | [1] 105 % of control | [2] 106 % of control

CCOc1ccc2ccccc2c1C(Cc1ccccc1)NC (centres undefined)
inactive: [4] 99 % of control | [5] 93 % of control | [6] 99 % of control and 100 % of control
